Measured values as given in patent US20170198027A1 (priority 2012, published 2017).
Entries after “also recorded” stand apart in the source; their conditions may differ. Like-named read-outs stand apart in the source and are kept apart here.

System: New Zealand white rabbit fed with high fat diet
Conditions: for atherosclerosis Grade: individual animals, listed as APOAI
[1] = low dose group vs vehicle control
[2] = medium group vs vehicle control

Procedure: The treatment groups were given APOAJ via auricular vein once a week Vehicle controls received normal saline via auricular vein once a week. […] The body weight of animal was determined every week and whole blood was drawn every three weeks. The study duration was 19 weeks. At the end of study, all animals were sacrificed. […] Male New Zealand white rabbits were used in this study. […] Blood samples were taken 12 hour after fasting before study to determine the blood lipid parameters. […] Ten to 14 rabbits were in one group. […] First dose was given 1 week before high fat diet. […] 5.2 blood lipid parameters: whole blood was drawn every three weeks. Animals were subject to 12 hour fast before taking blood. […] The upper layer of serum was then separated and examined for total cholesterol (TC), total triglyceride (TG), low density lipoprotein cholesterin (LDL-C), and high density lipoprotein cholesterin (HDL-C). Test reagents were purchased from Shanghai A: The atherosclerosis of aorta (plaque area lj) B: Liver index C: Aorta, liver, heart, arteria carotis, kidney All animals were anesthetized by 20 of ethyl carbamate and then sacrificed with air injection. Abdomen cavity was opened. Whole blood was taken from heart. Heart was harvested along with 7 em of aorta. Then other organs like liver, kidney and arteria carotis were harvested. […] Pictures were taken then. Aorta was cut from aortic arch, opened longitudinally and taken picture. […] One piece of this sample was fixed in fomlalin for further pathological analysis. The weight of liver was determined immediately. Two pieces of specimen were cut from hepatic lobe. One was kept in cryo-preservation tube for lipid analysis and another one was fixed in formalin for further pathological analysis. Animals were fast for 12 hours before taking blood samples via auricular vein. […] Test reagents were purchased from Shanghai Rong Sheng Bio-pharmaceutical Co. Ltd. The aorta was dissected and opened for 7.5 em from aortic arch longitudinally. Pictures were taken and atherosclerosis changing was analyzed.

Q: Which results are given for “human Apoiipoprotein AI, injection [APOA1]”?
A: Lipid content in aorta: HDL-C (High dose): 0.111; Lipid content in aorta: LDL-C (High dose): 0.318; Lipid content in aorta: TC (High dose): 0.29; Lipid content in aorta: TG (High dose): 0.402; Lipid content in liver: HDL-C (High dose): 0.825 ± 0.129; Lipid content in liver: LDL-C (High dose): 2.302 ± 0.054; Lipid content in liver: TC (High dose): 2.841 ± 0.298; Lipid content in liver: TG (High dose): 1.3 ± 0.171; Liver index (High dose (n = 8)): 4.257 ± 0.482%; Liver weight (High dose (n = 8)): 151.69 ± 18.49 g; Lipid content in aorta: HDL-C (Low dose): 0.092; Lipid content in aorta: LDL-C (Low dose): 0.254; Lipid content in aorta: TC (Low dose): 0.28; Lipid content in aorta: TG (Low dose): 0.337; Lipid content in liver: HDL-C (Low dose): 0.803 ± 0.236; Lipid content in liver: TC (Low dose): 2.95 ± 0.809; Lipid content in liver: TG (Low dose): 1.369 ± 0.251; Liver index (Low dose (n = 12)): 3.886 ± 0.489%; Liver weight (Low dose (n = 12)): 128.096 ± 20.43 g; Liver index (Medium dose (n = 9)): 3.708−.−i−:( ).391%; Liver weight (Medium dose (n = 9)): 112.006− −+ .−25.79 g; Lipid content in aorta: HDL-C (Middle dose): 0.128; Lipid content in aorta: LDL-C (Middle dose): 0.307; Lipid content in aorta: TC (Middle dose): 0.332; Lipid content in aorta: TG (Middle dose): 0.388; Lipid content in liver: HDL-C (Middle dose): 0.815 ± 0.249; Lipid content in liver: LDL-C (Middle dose): 1.407 ± 0.418; Lipid content in liver: TC (Middle dose): 2,214 ± 0.515; Lipid content in liver: TG (Middle dose): 1.081 ± 0.31; blood lipid parameters (given along with high fat diet): no significant decrease in blood lipid parameters; TG, lipid content in liver (high dose group vs vehicle control): significantly lower; atherosclerosis Grade (high dose group): IV (Grade IV was greater than 75%); pathological change of aorta (low dose group): no significant improvement; TG, lipid content in liver [1]: significantly lower; cellular swelling in liver [1]: same; fat degeneration in liver [1]: better; atherosclerosis Grade (low dose group): I (grade I was less than 25 ?-)); also recorded: IV (Grade IV was greater than 75%); atherosclerosis Grade (medium dose group): I (grade I was less than 25 ?-)); area of atherosclerosis (medium group (40 mg/kg) vs vehicle control): significant less; LDL-C, lipid content in liver [2]: significantly lower; TC, lipid content in liver [2]: significantly lower; TG, lipid content in liver [2]: significantly lower; cellular swelling and fat degeneration in liver [2]: better; pathological change of aorta (endothelium swelling, smooth muscle migrating, foam cell formation) [2]: better; Body weight Wk 19 (rabbit, in vivo): 3.19-.-i-:( ).278 kg; atherosclerosis change in Arteria carotis (rabbit, in vivo): no atherosclerosis change found; calcification, pathological examination (rabbit, in vivo): no calcification found; kidney Pathological change (rabbit, in vivo): -; pathological change in heart and kidney (rabbit, in vivo): no pathological change found; high density lipoprotein cholesterin (HDL-C) Wk 19 (serum, High dose (n = 8)): 4.993 · −+ :2.018 mmol/L; ligh density lipoprotein cholesterin (LDL-C) Wk 0 (serum, High dose (n = 8)): 0.92 ± 0.324 mmol/L; ligh density lipoprotein cholesterin (LDL-C) Wk 19 (serum, High dose (n = 8)): 14.1 ± 4.188 mmol/L; total cholesterol (TC) Wk 0 (serum, High dose (n = 8)): 1.59 .t-J}.48 mmol/L; total cholesterol (TC) Wk 19 (serum, High dose (n = 8)): 12.49 -t-2.81 mmol/L; high density lipoprotein cholesterin (HDL-C) Wk 0 (serum, Low dose (n = 12)): 0.705 ± 0.246 mmol/L; high density lipoprotein cholesterin (HDL-C) Wk 19 (serum, Low dose (n = 12)): 3.744 ± 2.14 mmol/L; ligh density lipoprotein cholesterin (LDL-C) Wk 0 (serum, Low dose (n = 12)): 0.826 ± 0.279 mmol/L; ligh density lipoprotein cholesterin (LDL-C) Wk 19 (serum, Low dose (n = 12)): 7.298 ± 4.60 mmol/L; total cholesterol (TC) Wk 0 (serum, Low dose (n = 12)): 1.06.-i-:0.27 mmol/L; total cholesterol (TC) Wk 19 (serum, Low dose (n = 12)): 9.07-.+:4.92 mmol/L; total triglyceride (TG) Wk 0 (serum, Low dose (n = 12)): 0.786 ± 0.229 mmol/L; total triglyceride (TG) Wk 19 (serum, Low dose (n = 12)): 1.267 ± 0.772 mmol/L; high density lipoprotein cholesterin (HDL-C) Wk 0 (serum, Medium dose (n = 9)): 0.67 ± 0.207 mmol/L; high density lipoprotein cholesterin (HDL-C) Wk 19 (serum, Medium dose (n = 9)): 4.343 ± 2.439 mmol/L; ligh density lipoprotein cholesterin (LDL-C) Wk 19 (serum, Medium dose (n = 9)): 6.357 ± 4.475 mmol/L; total cholesterol (TC) Wk 0 (serum, Medium dose (n = 9)): 1.77 ± 0.783 mmol/L; total cholesterol (TC) Wk 19 (serum, Medium dose (n = 9)): 10.28 ± 5.82 mmol/L; total triglyceride (TG) Wk 0 (serum, Medium dose (n = 9)): 0.656 ± 0.19 J·mmol/L; HDL-C (serum, all treatment groups vs vehicle control): significantly high; dose escalation effect (three treatment groups, anatomic, pathological and biochemistry examination): no dose escalation effect; Liver index (treatment group vs vehicle): lower in treatment group, but there's no statistical difference found; lipid content in aorta (treatment groups vs vehicle control): lower in treatment groups than that in vehicle control but there was no statistical significance
